From article PMC5618421, “Anti-Inflammatory Effects of Curvularin-Type Metabolites from a Marine-Derived Fungal Strain Penicillium sp. SF-5859 in Lipopolysaccharide-Induced RAW264.7 Macrophages” (Marine Drugs, 2017)

Legend:
[1] = test system: PGE2 production in LPS-treated RAW 264.7 macrophages; test: Inhibition of PGE2 production (PGE2 ELISA kit) in LPS-treated RAW264.7 macrophages; type: cell-based; settings: Mus musculus, RAW264.7 macrophages pre-treated 3 h with compound, then LPS (1 μg/mL) 24 h
Method: All isolated compounds (1–9) were evaluated for their anti-inflammatory effects. […] NO is a small molecule which is an intracellular mediator produced in various immune cells. It plays a pivotal role in the physiological and pathological condition of inflammatory symptoms. PGE2 can also regulate the immune and inflammatory responses. In this study, RAW264.7 macrophages were pre-treated for 3 h in the medium containing non-toxic concentrations (Table 2) of each compound (1–9), and then LPS (1 μg/mL) was treated for 24 h. According to the LPS stimulation of RAW264.7 macrophages, production of NO and PGE2 was increased, and the effects of all compounds on the production level of NO and PGE2 were evaluated by the Griess reaction and a PGE2 kit, respectively. […] To evaluate the impact of phenol and resorcinol groups in the curvularin-type metabolites for the anti-inflammatory activity, 5-O-methyl and 5,7,-di-O-methyl derivatives of curvularin (3a and 3b, respectively), as well as 5-O-acetyl and 5,7,-di-O-acetyl derivatives of curvularin (3c and 3d, respectively), were prepared, and the structures of 3a–3d were identified by comparison the ^1H and ^13C-NMR spectroscopic data with those of curvularin (3), and confirmed by their HRESIMS. […] The position of the methoxy group in 3a was confirmed by HMBC correlation between methoxy signal at δH 3.77 (3H, s, 5-OCH3) and δC 161.8 (C-5). The NOESY cross-peaks between acetyl proton ([…]) with H-2, H-4, and H-16 of 3c were used to identify the position of the acetyl group in 3c. […] Further systematic investigations are needed to clarify the structure activity relationship associated with the modification of the aliphatic part of the molecule.
RPMI1640, fetal bovine serum (FBS), and other tissue culture reagents were purchased from Gibco BRL Co. (Grand Island, NY, USA). All other chemicals were obtained from Sigma-Aldrich Co. (St. Louis, MO, USA). Primary antibodies (COX-2: sc-1745; iNOS: sc-650; IκB-α: sc-371; p-IκB-α: sc-8404; p50: sc-7178; p65: sc-8008, Santa Cruz Biotechnology, Dallas, TX, USA, p-ERK: #9101; ERK: #9102; p-JNK: #9251; JNK: #9252S; p-p38: #9211; p38: 9212S, Cell Signaling Technology, Danvers, MA, USA) and secondary antibodies (mouse: ap124p; goat: ap106p; rabbit: ap132p, Millipore, Billerica MA, USA). Enzyme-linked immunosorbent assay (ELISA) kits for PGE2 were purchased from R and D Systems, Inc. (Minneapolis, MN, USA).

IL-6 (Il6) = test: RT-qPCR of IL-6 mRNA in LPS-stimulated RAW264.7 macrophages; type: cell-based; settings: pre-treated 3 h, LPS (1 μg/mL) 6 h
NF-κB (p50 and p65) = test: Western blot of nuclear NF-κB (p50 and p65) in LPS-treated RAW264.7 macrophages; type: cell-based; settings: pre-treated 3 h, LPS (1 μg/mL) 1 h
Method: (§1) Figure 3 Effects of 8 on NF-κB activation (nuclear-p50 and p65) (a), IκBα phosphorylation and degradation (b), and the DNA binding activity of NF-κB (c) in LPS-treated RAW264.7 macrophages. Cells were pre-treated with the indicated concentrations of 8 for 3 h and stimulated with LPS (1 μg/mL) for 1 h. Western blot analysis (IκBα and p-IκBα in the cytoplasm and NF-κB in the nucleus) was performed as described in the Materials and Methods. Representative blots from three independent experiments are shown. A commercially-available NF-κB ELISA kit (Active Motif) was used to test the nuclear extracts and determine the degree of NF-κB binding. The data shown represent the mean values of three independent experiments. * p < 0.05 compared with the group treated with LPS.
(§2) The proteins of iNOS, COX-2, NF-κB, and MAPKs were measured by Western blot analysis. The details of procedures for Western blot analysis were described previously.
(§3) The proteins of nuclear NF-κB (p50 and p65) and cytosolic IκBα (p-IκBα and IκBα) were obtained by using cytosolic and nuclear fractions. The details of this procedure have been described previously.

IκB-α = test: Western blot of cytosolic IκBα phosphorylation and degradation in LPS-treated RAW264.7 macrophages; type: cell-based; settings: pre-treated 3 h, LPS (1 μg/mL) 1 h
Method: as §1, §2, §3

[2] = test system: extracellular signal-regulated kinase (ERK); test: Western blot of ERK phosphorylation in LPS-treated RAW264.7 macrophages; type: cell-based; settings: pre-treated 3 h, LPS (1 μg/mL) 30 min
Method: Figure 4 Effects of 8 on p38 (a), JNK (b), and ERK (c) phosphorylation in RAW264.7 macrophages. Cells were pre-treated with the indicated concentrations of 8 for 3 h and stimulated for 30 min with LPS (1 μg/mL). Cell extracts were subjected to Western blotting with antibodies specific for phosphorylated-p38 (p-p38), phosphorylated JNK (p-JNK), or phosphorylated ERK1/2 (p-ERK). Membranes were stripped and re-probed to measure the total abundance of each MAPK as a control measurement. Representative blots from three independent experiments are shown.
as §2

p97 = test system: p97; set-up: method as in PMID 27223265; settings: interfering with its ATPase activity; cited from earlier work

For `C[C@H]1CCC/C=C/C(=O)c2c(O)cc(O)cc2CC(=O)O1` [Compound 8, (10E,15S)-10,11-dehydrocurvularin], the IC50 [1] was 2700 ± 400 nM, the “mRNA expression of IL-6” value (IL-6 (Il6)) was “markedly suppressed the mRNA expression of IL-1β, IL-6, and TNF-α in a dose-dependent manner” and the “nuclear translocation of p50 and p65” value (NF-κB (p50 and p65)) was “clearly suppressed the nuclear translocation of p50 and p65 in a dose-dependent manner”. For the same compound, the “degradation of IκB-α” value (IκB-α) was “blocked the degradation of IκB-α in a concentration-dependent manner”, the “phosphorylation of IκB-α” value (IκB-α) was “attenuated this phosphorylation of IκB-α” and the “LPS-induced phosphorylation of ERK” value [2] was “did not suppress these phosphorylations”. For the same compound, the “inhibition of p97” value (p97) was “covalent inhibitor of p97”.
